System: pulmonary edema model mice
Assay: LPS-induced pulmonary edema model mice, lung weight/body weight (Example 10, Experiment 1)
Format: in vivo
Details: 350 ng/body weight (g) intravenous, three hours after LPS 100 μg/body weight (g) intravenous
From the text: FIG. 10 is a graph showing the results of Experiment 1 in Example 10 of the present application, namely, the results regarding therapeutic effects on pulmonary edema (the effect of reducing the amount of lung water). In the graph, “Control” indicates normal mice, “LPS” indicates an “LPS (lipopolysaccharide)+control peptide (SEQ ID NO: 26)” administration group, and “LPS/Peptide” indicates an “LPS (lipopolysaccharide)+therapeutic peptide (SEQ ID NO: 25)” administration group. In addition, the numerical value of the vertical axis in the graph indicates the ratio of the weight (g) of lung to the body weight (g) of each mouse (lung weight (g)/body weight (g)).
The therapeutic effects of the peptide of the present invention on model mice with pulmonary edema, which were caused by septicemia, disseminated intravascular coagulation syndrome (DIC) or acute respiratory distress syndrome (ARDS), were confirmed. […]
A comparison experiment was carried out on a normal mouse group (healthy mice), an “LPS (lipopolysaccharide; endotoxin)+control peptide (SEQ ID NO: 26)” administration group, and an “LPS+therapeutic peptide (SEQ ID NO: 25)” administration group (7 mice/each group). […] Thereafter, the lung was removed from the mice in each group, and the weight of each lung was measured. The ratio of the weight (g) of the lung to the body weight (g) (lung weight (g)/body weight (g)) was calculated.

**Q.** “AETVFSNMDYENSTEAVFIQDDITKKKKKK [SEQ ID NO: 25]” was tested. Which “reduction of the LPS-increased amount of lung weight” value did it give?
**A.** Its value is 72%.

— US9738884B2, “Therapeutic agent for epithelial and endothelial injury” (NIHON UNIVERSITY, priority 2012, dated 2017)
